Data published in ChEMBL document CHEMBL1139712, “Interaction of N1-unsubstituted and N1-benzenesulfonyltryptamines at h5-HT6 receptors” (Bioorg Med Chem Lett, 2006).
pKi: −log10 of the molar value.

Molecular target: 5-hydroxytryptamine receptor 6 (Homo sapiens, UniProt P50406)
Experiment: Displacement of [3H]LSD from human 5HT6 receptor expressed in HEK293 cells
Format: cell-based

5-hydroxytryptamine receptor 6, sequence (P50406 whole entry): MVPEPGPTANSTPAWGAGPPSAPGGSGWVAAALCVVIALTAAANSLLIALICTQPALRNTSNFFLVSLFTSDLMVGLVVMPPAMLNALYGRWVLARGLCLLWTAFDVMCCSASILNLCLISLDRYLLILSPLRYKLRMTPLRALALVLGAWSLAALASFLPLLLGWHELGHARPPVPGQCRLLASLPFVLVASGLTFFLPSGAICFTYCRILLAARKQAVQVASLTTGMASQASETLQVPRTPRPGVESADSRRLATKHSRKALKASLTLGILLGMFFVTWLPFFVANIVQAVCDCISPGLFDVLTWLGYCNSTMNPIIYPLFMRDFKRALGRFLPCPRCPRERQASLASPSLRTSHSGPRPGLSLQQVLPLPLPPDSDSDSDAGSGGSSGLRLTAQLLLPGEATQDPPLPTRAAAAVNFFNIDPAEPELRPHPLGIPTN

Row | Structure (SMILES) | pKi
1 | CCN(CC)CCc1c[nH]c2ccccc12 | 6.24
2 | COc1cccc2c1c(CCN(C)C)cn2S(=O)(=O)c1ccccc1 | 7.96
3 | COc1ccc2c(CCN(C)C)cn(S(=O)(=O)c3ccccc3)c2c1 | 7.82
4 | CN(C)CCc1cn2c3c(cccc13)-c1ccccc1S2(=O)=O | 5.35
5 | CN(C)CCc1c2n(c3ccccc13)S(=O)(=O)c1ccccc1-2 | 6.84
6 | CCN(CC)CCc1cn(S(=O)(=O)c2ccccc2)c2ccccc12 | 7.85
7 | COc1ccc2[nH]cc(CCN(C)Cc3ccccc3)c2c1 | 6.97
